Results as given in US4185119A, “Antiallergic methods” (priority 1977, dated 1980).
Structures can show the parent of a compound that is named as a salt.

Experiments:
[1] = system: P.C.A. reaction in Donryu strain rats; test: Inhibition of P.C.A. reaction in Donryu strain rats, rat reaginic antiserum against egg albumin; type: in vivo; settings: Donryu rat (Table 2-I)
Experimental: (a) Rat reaginic antiserum against egg albumin
A solution of egg albumin (2 mg) in B. pertussis-diphtheria-tetanus mixed vaccine (1 ml.) (made by Takeda Chemical Industries Ltd.) was mixed with an equal volume of incomplete adjuvant (made by Difco Laboratories) to give an emulsion. The emulsion was given subcutaneously in a single dose of 1 ml. divided equally (0.25 ml.) to the four foot pads of male S.D. (Sprague-Dawley) strain rats aged 8 weeks, each weighing about 300 g.
Five days after the administration, a solution of egg albumin (0.5 mg.) in B. pertussis-diphtheria-tetanus mixed vaccine (0.5 ml.) was further given intramuscularly in a single dose of 0.5 ml. divided equally (0.25 ml.) to 2 places of thigh of the same rats.
Three days after the second administration, blood samples were collected from femoral artery of the rats and allowed to stand at ambient temperature for 5 hours. The separated supernatant was centrifuged at 4° C. (10,000 r.p.m.× 1 hour). The antisera thus obtained were stored at -80° C. prior to use.
(b) Inhibitory effect on P.C.A. reaction in Donryu strain rat
The following tests were carried out in substantially the same manner as described in the above item (2)-(a).
(i) Test compound: N:methyllaurotetanine hydrochloride
Test animal: Male Donryu strain rats aged 8 weeks, weighing about 130 g.
Challenge: A normal saline (0.3 ml.) containing egg albumin (4.5 mg.) and Evans blue (1.5 mg.).
(ii) Test commpound: glaucine or boldine
Test animal: Male Donryu strain rats aged 8 weeks, weighing 140-150 g.
Challenge: the same as the above item (b)-(i).

[2] = system: P.C.A. reaction in I.C.R. strain mice; test: Inhibition test of P.C.A. reaction in I.C.R. strain mice, rat hyperimmune antiserum against egg albumin; type: in vivo; settings: I.C.R. mouse (Table 3-I)
Experimental: (c) Inhibition test of P.C.A. reaction in I.C.R. (Institute of Cancer Research) strain mice
(i) Test compound: N-methyllaurotetanine hydrochloride
Fifteen male I.C.R. strain mice aged 7 weeks, weighing about 35 g were divided equally into 3 groups. Each of the groups was composed of 5 mice, (in case of intraperioneal administration of the test compound to the mouse, each of the groups was composed of […]).
Ten-hold diluted solution (0.05 ml.) of the rat hyperimmune antiserum against egg albumin was given intracutaneously to the depilated back of each mouse of Group I and Group II, respectively. On the other hand, a rat normal serum (0.05 ml.) was given intracutaneously to the depilated back of each mouse of Group III. Three hours after the administration, a normal saline (0.1 ml.) containing egg albumin (1.5 mg.) and Evans blue (0.5 mg.) was given intravenously to each mouse of Groups I-III in order to bring about P.C.A., respectively.
Beforehand, 3 hours and 1 hours before the admnistration to bring about P.C.A., a normal saline (0.3 ml.) containing the prescribed amount of N-methyllaurotetanine hydrochloride and carboxymethylcellulose (0.5%) was given orally or intraperitoneally to each mouse of Group I, and a normal saline (0.3 ml.) containing only carboxymethylcellulose (0.5%) was given orally or intraperitoneally to each mouse of Group II.
The procedure followed by the above, was carried out in substantially the same manner as described in the above item (2)-(a). […]

## COc1cc2c(cc1O)CC1c3c(cc(OC)c(OC)c3-2)CCN1C (centres unmarked) [N-Methyllaurotetanine hydrochloride]
[1]; intraperitoneal, 4 mg/kg
  Inhibitory effect on P.C.A. reaction: 30%
[1]; intraperitoneal, 13 mg/kg
  Inhibitory effect on P.C.A. reaction: 60%
[1]; intraperitoneal, 40 mg/kg
  Inhibitory effect on P.C.A. reaction: 70%
[1]; intravenous, 6.7 mg/kg
  Inhibitory effect on P.C.A. reaction: 70%
[1]; intravenous, 20 mg/kg
  Inhibitory effect on P.C.A. reaction: 100%
[1]; oral, 20 mg/kg
  Inhibitory effect on P.C.A. reaction: 40%
[1]; oral, 66 mg/kg
  Inhibitory effect on P.C.A. reaction: 70%
[1]; oral, 200 mg/kg
  Inhibitory effect on P.C.A. reaction: 90%
[2]; intraperitoneal, 3 mg/kg
  Inhibitory effect on P.C.A. reaction: 50%
[2]; intraperitoneal, 10 mg/kg
  Inhibitory effect on P.C.A. reaction: 80%
[2]; intraperitoneal, 30 mg/kg
  Inhibitory effect on P.C.A. reaction: 95%
[2]; oral, 16 mg/kg
  Inhibitory effect on P.C.A. reaction: 20%
[2]; oral, 48 mg/kg
  Inhibitory effect on P.C.A. reaction: 50%
[2]; oral, 145 mg/kg
  Inhibitory effect on P.C.A. reaction: 70%
